Assay results as given in ChEMBL document CHEMBL4706559, “New indolylarylsulfone non-nucleoside reverse transcriptase inhibitors show low nanomolar inhibition of single and double HIV-1 mutant strains” (Eur J Med Chem, 2020).

Legend:
[1] = molecular target: Human immunodeficiency virus type 1 reverse transcriptase (Human immunodeficiency virus 1, UniProt Q72547, K103N); experiment: Inhibition of RNA-dependent DNA polymerase activity of recombinant HIV-1 p66/p51 reverse transcriptase K103N mutant assessed as inhibition of [3H]dTTP incorporation using poly(rA)/oligo(dT) as templates incubated for 15 mins by MicroBeta scintillation counting method
[2] = Cytotoxicity against human MT-4 cells assessed as reduction in cell viability by MTT assay; assay type: cell-based, MT4
[3] = tested on: Human immunodeficiency virus 1; experiment: Binding affinity to HIV-1 p66/p51 reverse transcriptase K103N/Y181C double mutant/nucleic acid binary complex assessed as dissociation constant using poly(rA)/oligo(dT) as templates in presence of [3H]dTTP
[4] = molecular target: Human immunodeficiency virus type 1 reverse transcriptase (Human immunodeficiency virus 1) (UniProt Q72547); experiment: Inhibition of wild type HIV1 p66/p51 reverse transcriptase assessed as apparent Vmax at 75 nM using 10 to 500 uM poly(rA)/oligo(dT) as templates in presence of fixed concentration of [3H]dTTP by Michaelis-Menten analysis (reference value: 10 +/- 0.5%)
[5] = Binding affinity to free form of HIV-1 p66/p51 reverse transcriptase K103N/Y181C double mutant using poly(rA)/oligo(dT) as templates in presence of [3H]dTTP; set-up: species or system Human immunodeficiency virus 1
[6] = tested on: Human immunodeficiency virus 1; experiment: Ratio of Kon of HIV-1 p66/p51 reverse transcriptase K103N/Y181C double mutant/nucleic acid/dTTP ternary complex to Kon of free form of HIV-1 p66/p51 reverse transcriptase using poly(rA)/oligo(dT) as templates in presence of [3H]dTTP
[7] = molecular target: Human immunodeficiency virus type 1 reverse transcriptase (Human immunodeficiency virus 1) (UniProt Q72547); experiment: Ratio of Kon of wild type HIV-1 p66/p51 reverse transcriptase/nucleic acid binary complex to Kon of free form of wild type HIV-1 p66/p51 reverse transcriptase using poly(rA)/oligo(dT) as templates in presence of [3H]dTTP
[8] = tested on: Human immunodeficiency virus 1; experiment: Antiviral activity against HIV1 harboring RT Y181C mutant infected in human MT4 cells assessed as protection against virus-induced cytopathic effect by MTT assay; assay type: functional, organism-based; conditions: Human immunodeficiency virus 1, MT4
[9] = tested on: Human immunodeficiency virus 1; experiment: Antiviral activity against HIV1 harboring RT Y188L mutant infected in human MT4 cells assessed as protection against virus-induced cytopathic effect by MTT assay; assay type: functional, organism-based; conditions: Human immunodeficiency virus 1, MT4
[10] = tested on: Human immunodeficiency virus 1; experiment: Inhibition of HIV1 p66/p51 reverse transcriptase K103N/Y181C double mutant assessed as apparent Km of substrate at 150 nM using […] as templates in presence of fixed concentration of [3H]dTTP by Michaelis-Menten analysis (reference value: 106+/- 16 nM)
[11] = tested on: Human immunodeficiency virus 1; experiment: Antiviral activity against HIV1 harboring RT K103N mutant infected in human MT4 cells assessed as protection against virus-induced cytopathic effect by MTT assay; assay type: functional, organism-based; conditions: Human immunodeficiency virus 1, MT4
[12] = tested on: Human immunodeficiency virus 1; experiment: Resistance index, ratio of EC50 for antiviral activity against HIV1 harboring RT Y188L mutant infected in human MT4 cells to EC50 for antiviral activity against HIV1 NL4-3 infected in human MT4 cells; assay type: functional
[13] = tested on: Human immunodeficiency virus 1; experiment: Inhibition of HIV1 p66/p51 reverse transcriptase K103N/Y181C double mutant assessed as apparent Km of substrate at 75 nM using […] as templates in presence of fixed concentration of [3H]dTTP by Michaelis-Menten analysis (reference value: 106+/- 16 nM)
[14] = molecular target: Human immunodeficiency virus type 1 reverse transcriptase (Human immunodeficiency virus 1, UniProt Q72547); experiment: Inhibition of RNA-dependent DNA polymerase activity of wild type recombinant HIV-1 His-tagged p66/p51 reverse transcriptase assessed as inhibition of [3H]dTTP incorporation using poly(rA)/oligo(dT) as templates incubated for 15 mins by MicroBeta scintillation counting method
[15] = molecular target: Human immunodeficiency virus type 1 reverse transcriptase (Human immunodeficiency virus 1) (UniProt Q72547); experiment: Inhibition of wild type HIV1 p66/p51 reverse transcriptase assessed as apparent Vmax at 225 nM using fixed concentration of poly(rA)/oligo(dT) as templates in presence of 2 to 100 uM of [3H]dTTP by Michaelis-Menten analysis (reference value: 9.7 +/- 12%)
[16] = molecular target: Human immunodeficiency virus type 1 reverse transcriptase (Human immunodeficiency virus 1) (UniProt Q72547); experiment: Binding affinity to wild type HIV-1 p66/p51 reverse transcriptase/nucleic acid binary complex assessed as association constant using poly(rA)/oligo(dT) as templates in presence of [3H]dTTP
[17] = molecular target: Human immunodeficiency virus type 1 reverse transcriptase (Human immunodeficiency virus 1) (UniProt Q72547); experiment: Inhibition of wild type HIV1 p66/p51 reverse transcriptase assessed as apparent Vmax at 37.5 nM using 10 to 500 uM poly(rA)/oligo(dT) as templates in presence of fixed concentration of [3H]dTTP by Michaelis-Menten analysis (reference value: 10 +/- 0.5%)
[18] = tested on: Human immunodeficiency virus 1; experiment: Inhibition of HIV1 p66/p51 reverse transcriptase K103N/Y181C double mutant assessed as apparent Vmax at 150 nM using 10 to 500 uM poly(rA)/oligo(dT) as templates in presence of fixed concentration of [3H]dTTP by Michaelis-Menten analysis (reference value: 12 +/- 1%)
[19] = molecular target: Human immunodeficiency virus type 1 reverse transcriptase (Human immunodeficiency virus 1) (UniProt Q72547); experiment: Inhibition of wild type HIV1 p66/p51 reverse transcriptase assessed as apparent Vmax at 90 nM using fixed concentration of poly(rA)/oligo(dT) as templates in presence of 2 to 100 uM of [3H]dTTP by Michaelis-Menten analysis (reference value: 9.7 +/- 12%)
[20] = tested on: Human immunodeficiency virus 1; experiment: Antiviral activity against wild type HIV-1 P1 infected in human C8166 cells assessed as reduction in viral p24 antigen production at 25 nM; assay type: functional; conditions: Human immunodeficiency virus 1, P1, C8166
[21] = molecular target: Human immunodeficiency virus type 1 reverse transcriptase (Human immunodeficiency virus 1) (UniProt Q72547); experiment: Binding affinity to free form of wild type HIV-1 p66/p51 reverse transcriptase assessed as dissociation constant using poly(rA)/oligo(dT) as templates in presence of [3H]dTTP
[22] = Binding affinity to HIV-1 p66/p51 reverse transcriptase K103N/Y181C double mutant/nucleic acid binary complex using poly(rA)/oligo(dT) as templates in presence of [3H]dTTP; set-up: species or system Human immunodeficiency virus 1
[23] = tested on: Human immunodeficiency virus 1; experiment: Inhibition of HIV1 p66/p51 reverse transcriptase K103N/Y181C double mutant assessed as apparent Km of substrate at 300 nM using fixed concentration of poly(rA)/oligo(dT) as templates in presence of 2 to 100 uM of [3H]dTTP by Michaelis-Menten analysis (reference value: 9.2 +/- 1.4 uM)
[24] = tested on: Human immunodeficiency virus 1; experiment: Inhibition of HIV1 p66/p51 reverse transcriptase K103N/Y181C double mutant assessed as apparent Km of substrate at 150 nM using fixed concentration of poly(rA)/oligo(dT) as templates in presence of 2 to 100 uM of [3H]dTTP by Michaelis-Menten analysis (reference value: 9.2 +/- 1.4 uM)
[25] = tested on: Human immunodeficiency virus 1; experiment: Ratio of Kon of HIV-1 p66/p51 reverse transcriptase K103N/Y181C double mutant/nucleic acid/dTTP ternary complex to Kon of HIV-1 p66/p51 reverse transcriptase/nucleic acid binary complex using poly(rA)/oligo(dT) as templates in presence of [3H]dTTP

For `Cc1cc(C)cc(S(=O)(=O)c2c(C(=O)NCc3ccccc3O)[nH]c3ccc(Cl)cc23)c1`, the IC50 [1] was 73 nM, the CC50 [2] was 23.8 µM and the K [3] was 8 10^-3/s. For the same compound, the Vmax(app) [4] was 3.3%, the Ki [5] was 137 nM and the Ratio [6] was 4. For the same compound, the Ratio [7] was 7, the EC50 [8] was less than 0.7 nM and the EC50 [9] was 21.3 nM. The Km [10] was 0.125 µM, the EC50 [11] was less than 0.7 nM and the “Ratio EC50” value [12] was greater than 30. It also gave a Km [13] of 0.108 µM, an IC50 [14] of 83 nM and a Vmax(app) [15] of 0.9%. For the same compound, the K [16] was 96 10^-5/nM/s, the Vmax(app) [17] was 4.9% and the Vmax(app) [18] was 6%. For the same compound, the Vmax(app) [19] was 2.9%, the inhibition at 0.025 µM [20] was 100% and the K [21] was 4 10^-3/s. The Ki [22] was 86 nM, the Km [23] was 1.9 µM and the Km [24] was 2.2 µM. For the same compound, the Ratio [25] was 4.
